Results as given in patent publication US20240301319A1, “PERFUMING COMPOSITIONS” (FIRMNICH SA, priority 2017, published 2024).
Each block holds one compound with its values, some of them ahead of it.

Key:
[1] = Odor threshold and odor value of perfuming compounds (Tables 4 to 10)
[2] = Volatility of perfuming compounds (Tables 4 to 10), with top/middle/bottom note type; format: physicochemical
Procedure: In some aspects, the first perfume accord comprises perfuming compounds having a volatility ranging from 70,000 to 100 μg/l in air. In some aspects, perfuming compounds having a volatility ranging from 70,000 to 100 μg/l in air are referred to as “top notes”.
In some aspects, the second perfume accord comprises perfuming compounds having a volatility ranging from 99 to 50 μg/l in air. In some aspects, perfuming compounds having a volatility ranging from 99 to 50 μg/l in air are referred to as “middle notes”.
In some aspects, the third perfume accord comprises perfuming compounds having a volatility ranging from 49 to 0.1 μg/l in air. In some aspects, perfuming compounds having a volatility ranging from 49 to 0.1 μg/l in air are referred to as “bottom notes”.
Tables 4 to 10 describe top, middle and bottom note perfuming compounds for watery, green, fruity, citrus, sweet, gourmand and woody notes respectively.

[3] = Table 6, perfuming compounds having a fruity note
[4] = Table 8, perfuming compounds having a sweet note
[5] = Table 6, perfuming compounds having a fruity note, note type by volatility
[6] = Table 8, perfuming compounds having a sweet note, note type by volatility
[7] = Table 9, perfuming compounds having a gourmand note, note type by volatility
[8] = Table 4, watery note, equals volatility divided by odor threshold
[9] = Table 4, watery note, top, middle or bottom note
[10] = perfuming compounds having a green note
[11] = note type (Top/Middle/Bottom) by volatility, perfuming compounds having a green note
[12] = Table 10, perfuming compounds having a woody note, note type by volatility
[13] = Table 7, citrus note, equals volatility divided by odor threshold
[14] = Table 7, citrus note, top, middle or bottom note

Compound: COc1cc(C=O)ccc1OC(=O)C(C)C
Odor Threshold [1, 3]: 7.33E−05 μg/l air | Odor Value [1, 3]: 1.38E+04 | Odor Threshold [1, 4]: 7.33E−05 μg/l air | Odor Value [1, 4]: 1.38E+04 | Odor Threshold ([1]; Table 9, gourmand note): 7.33E−05 μg/l air | Volatility [2, 3]: 1.01 μg/l air | Type [2, 5]: Bottom | Volatility [2, 4]: 1.01 μg/l air | Type [2, 6]: Bottom | Volatility ([2]; Table 9, gourmand note): 1.01 μg/l air | Type [2, 7]: Bottom

Compound: CC(=O)OC(C)CCC=C(C)CCC=C(C)C (stereo not drawn) [1,5,9-TRIMETHYL-4,8-DECADIENYL ACETATE]
Odor Threshold (μg/l air) ([1]; Table 4, watery note): 3.28E−04 μg/l air | Odor Value [1, 8]: 4.49E+04 | Odor Threshold [1, 3]: 3.28E−04 μg/l air | Odor Value [1, 3]: 4.49E+04 | Volatility (μg/l air) ([2]; Table 4, watery note): 14.74 μg/l air | Type [2, 9]: bottom (perfuming compounds having a volatility ranging from 49 to 0.1 μg/l in air are referred to as “bottom notes”) | Volatility [2, 3]: 14.74 μg/l air | Type [2, 5]: Bottom

Compound: CC(=O)OC1CCC2C(C)(C)CCCC2(C)C1 (stereo not drawn) [5,5,8a-trimethyldecahydro-2-naphthalenyl acetate]
Odor Threshold ([1]; Table 10, woody note): 4.19E−04 μg/l air | Type [2, 12]: Bottom | Volatility ([2]; Table 10, woody note): 14.41 μg/l air

Compound: CCCCCCCCCC(C)C=O (racemic) [(+−)-2-methylundecanal]
Odor Threshold (μg/l air) ([1]; Table 4, watery note): 7.24E−05 μg/l air | Odor Value [1, 8]: 1.04E+06 | Volatility (μg/l air) ([2]; Table 4, watery note): 75.55 μg/l air | Type [2, 9]: middle (perfuming compounds having a volatility ranging from 99 to 50 μg/l in air are referred to as “middle notes”)

Compound: O=C1CCCCCCCCCCC(=O)OCCO1 [1,4-dioxacyclohexadecane-5,16-dione]
Odor Threshold [1, 4]: 7.05E−04 μg/l air | Odor Value [1, 4]: 6.55E+02 | Volatility [2, 4]: 0.46 μg/l air | Type [2, 6]: Bottom

Compound: CC(C)=CCCC(C)CCCC(C)C=O (racemic)
Odor Threshold (μg/l air) ([1]; Table 4, watery note): 1.59E−02 μg/l air | Odor Value [1, 8]: 1.15E+03 | Volatility (μg/l air) ([2]; Table 4, watery note): 18.23 μg/l air | Type [2, 9]: bottom (perfuming compounds having a volatility ranging from 49 to 0.1 μg/l in air are referred to as “bottom notes”)

Compound: CC1(C)C2C[C@H]3CCC(=O)C=C3[C@@H]1C2 (single isomer, unassigned; (+))
Odor Threshold ([1]; Table 10, woody note): 2.86E−05 μg/l air | Type [2, 12]: Bottom | Volatility ([2]; Table 10, woody note): 4.86 μg/l air

Compound: CC1=CCC(CCC(C)C(C)O)C1(C)C (racemic)
Odor Threshold ([1]; Table 10, woody note): 1.52E−03 μg/l air | Type [2, 12]: Bottom | Volatility ([2]; Table 10, woody note): 5.22 μg/l air

Compound: COc1cccc(OC)c1O [2,6-DIMETHOXYPHENOL]
Odor Threshold [1, 4]: 8.01E−06 μg/l air | Odor Value [1, 4]: 2.40E+06 | Odor Threshold ([1]; Table 9, gourmand note): 8.01E−06 μg/l air | Volatility [2, 4]: 19.23 μg/l air | Type [2, 6]: Bottom | Volatility ([2]; Table 9, gourmand note): 19.23 μg/l air | Type [2, 7]: Bottom

Further lines, with some results ahead:

Volatility [2, 3]: 83769.16 μg/l air | Type [2, 11]: Top | Volatility (μg/l air) [2, 10]: 83769.16 μg/l air
Compound: CCOC(=O)C(C)CC (racemic) [(+−)-ethyl 2-methylbutanoate]
Odor Threshold (μg/l air) [1, 10]: 1.26E−04 μg/l air | Type [2, 5]: TOP (perfuming compounds having a volatility ranging from 70,000 to 100 μg/l in air are referred to as “top notes”)

Type [2, 11]: Top | Volatility (μg/l air) [2, 10]: 800.05 μg/l air
Compound: CCCCCCCC(=O)OCC [ethyl octanoate]
Odor Threshold (μg/l air) [1, 10]: 5.30E−03 μg/l air

Volatility (μg/l air) ([2]; Table 7, citrus note): 291.85 μg/l air | Type [2, 14]: Top
Compound: cis-4-(2-methyl-2-propanyl)cyclohexyl acetate (A) + trans-4-(2-methyl-2-propanyl)cyclohexyl acetate (B)
Odor Threshold (μg/l air) ([1]; Table 7, citrus note): 5.43E−02 μg/l air | Odor Value [1, 13]: 5.37E+03

Volatility [2, 3]: 479.20 μg/l air | Volatility [2, 4]: 479.20 μg/l air | Type [2, 6]: Top | Volatility ([2]; Table 9, gourmand note): 479.20 μg/l air | Type [2, 7]: Top | Type [2, 11]: Top | Volatility (μg/l air) [2, 10]: 479.20 μg/l air
Compound: CCOC(=O)CC1(C)OCCO1 [ETHYL 2-METHYL-1,3-DIOXOLANE-2-ACETATE]
Odor Threshold [1, 4]: 1.62E−03 μg/l air | Odor Value [1, 4]: 2.95E+05 | Odor Threshold ([1]; Table 9, gourmand note): 1.62E−03 μg/l air | Odor Threshold (μg/l air) [1, 10]: 1.62E−03 μg/l air | Type [2, 5]: TOP (perfuming compounds having a volatility ranging from 70,000 to 100 μg/l in air are referred to as “top notes”)

Volatility (μg/l air) ([2]; Table 7, citrus note): 283.43 μg/l air | Type [2, 14]: Top
Compound: (Z)-3,7-DIMETHYL-1,6-NONADIEN-3-OL (A) + (E)-3,7-DIMETHYL-1,6-NONADIEN-3-OL (B)
Odor Threshold (μg/l air) ([1]; Table 7, citrus note): 1.38E−03 μg/l air | Odor Value [1, 13]: 2.05E+05

Volatility [2, 3]: 9675.10 μg/l air | Volatility [2, 4]: 9675.10 μg/l air | Type [2, 6]: Top | Volatility ([2]; Table 9, gourmand note): 9675.10 μg/l air | Type [2, 7]: Top | Type [2, 11]: Top | Volatility (μg/l air) [2, 10]: 9675.10 μg/l air
Compound: CCCCCC(=O)OCC [ETHYL HEXANOATE]
Odor Threshold [1, 4]: 9.11E−04 μg/l air | Odor Value [1, 4]: 1.06E+07 | Odor Threshold ([1]; Table 9, gourmand note): 9.11E−04 μg/l air | Odor Threshold (μg/l air) [1, 10]: 9.11E−04 μg/l air | Type [2, 5]: TOP (perfuming compounds having a volatility ranging from 70,000 to 100 μg/l in air are referred to as “top notes”)

Volatility [2, 3]: 587.76 μg/l air | Volatility (μg/l air) ([2]; Table 7, citrus note): 587.76 μg/l air | Type [2, 14]: Top | Type [2, 11]: Top | Volatility (μg/l air) [2, 10]: 587.76 μg/l air
Compound: COCC(C)Cc1ccccc1 (racemic) [(+−)-(3-methoxy-2-methylpropyl)benzene]
Odor Threshold (μg/l air) ([1]; Table 7, citrus note): 1.51E−02 μg/l air | Odor Value [1, 13]: 3.89E+04 | Odor Threshold (μg/l air) [1, 10]: 1.51E−02 μg/l air | Type [2, 5]: TOP (perfuming compounds having a volatility ranging from 70,000 to 100 μg/l in air are referred to as “top notes”)
